Laboratory results: US10493070B2 (priority 2016, dated 2019)

Each compound was assayed on recombinant NL4-3 virus (NLRluc, Renilla luciferase in nef, Gag P373S) (assay: HIV cell culture assay (Renilla luciferase reporter virus in MT-2 cells)). Conditions: Renilla, NL43, read-out: 10% FBS EC50, 10% FBS, class symbols A/B/C.
Format: cell-based
Experimental: MT-2 cells and 293T cells were obtained from the NIH AIDS Research and Reference Reagent Program. MT-2 cells were propagated in RPMI 1640 media supplemented with 10% heat inactivated fetal bovine serum, […]. The 293T cells were propagated in DMEM media supplemented with 10% heat inactivated fetal bovine serum (FBS), 100 units/ml penicillin G and 100 μg/ml streptomycin. The proviral DNA clone of NL4-3 was obtained from the NIH AIDS Research and Reference Reagent Program. A recombinant NL4-3 virus, in which a section of the nef gene from NL4-3 was replaced with the Renilla luciferase gene, was used as a reference virus. In addition, residue Gag P373 was converted to P373S. Briefly, the recombinant virus was prepared by transfection of the altered proviral clone of NL4-3. Transfections were performed in 293T cells using LipofectAMINE PLUS from Invitrogen (Carlsbad, Calif.), according to manufacturer's instruction. The virus was titered in MT-2 cells using luciferase enzyme activity as a marker. Luciferase was quantitated using the Dual Luciferase kit from Promega (Madison, Wis.), with modifications to the manufacturer's protocol. The diluted Passive Lysis solution was pre-mixed with the re-suspended Luciferase Assay Reagent and the re-suspended Stop & Glo Substrate (2:1:1 ratio). Fifty (50) μL of the mixture was added to each aspirated well on assay plates and luciferase activity was measured immediately on a Wallac TriLux (Perkin-Elmer). Antiviral activities of inhibitors toward the recombinant virus were quantified by measuring luciferase activity in cells infected for 4-5 days with NLRluc recombinants in the presence serial dilutions of the inhibitor. Table 16 is the key for the data in Table 17.
In the case of `CC(C)C[C@@H](NC(=O)OC(C)(C)C)C(=O)N1CCC(C(=O)N2CC[C@H]3C(C)(C)[C@@H](c4ccc(C(=O)O)cc4)CC[C@]3(C)C2)(c2ccccc2)CC1` [Example 86], the EC50 is reported as under 500 nM.
Compound `CC1(C)C(c2ccc(C(=O)O)cc2)=CC[C@]2(C)CN(C(=O)c3ccccc3-c3nc4ccc(F)c(F)c4o3)CC=C12` [Example A314] has an EC50 of 500 to 3000 nM.
`CC1(C)C(c2ccc(C(=O)O)cc2)=CC[C@]2(C)CN(C(=O)c3ccccc3-c3nc4cc(F)c(F)cc4o3)CC=C12` [Example A338] showed an EC50 of 500 to 3000 nM.
In the case of `CC1(C)C(c2ccc(C(=O)O)cc2)=CC[C@]2(C)CN(C(=O)c3ccc(F)cc3F)CC=C12` [Example 5], the EC50 is reported as over 3000 nM.
`CC(=O)NCCn1c(-c2ccccc2C(=O)N2CC=C3C(C)(C)C(c4ccc(C(=O)O)cc4)=CC[C@]3(C)C2)nc2cc(C(=O)O)ccc21` [Example A294] showed an EC50 of over 3000 nM.
In the case of `CC1(C)C(c2ccc(C(=O)O)cc2)=CC[C@]2(C)CN(C(=O)C(=O)N3CCC[C@H]3C(=O)NCCCN3CCS(=O)(=O)CC3)CC[C@@H]12` [Example C2, 4-((4aS,8aS)-2-(2-((S)-2-((3-(1,1-dioxidothiomorpholino)propyl)carbamoyl)pyrrolidin-1-yl)-2-oxoacetyl)-5,5,8a-trimethyl-1,2,3,4,4a,5,8,8a-octahydroisoquinolin-6-yl)benzoic acid], the EC50 is reported as over 3000 nM.
For `Cc1cc2nc(-c3ccccc3C(=O)N3CC=C4C(C)(C)C(c5ccc(C(=O)O)cc5)=CC[C@]4(C)C3)[nH]c2cc1Cl` [Example A254], the EC50 was under 500 nM.
Work on `CC(C)C[C@H](NC(=O)OC(C)(C)C)C(=O)N1CCC(C(=O)N2CC=C3C(C)(C)C(c4ccc(C(=O)O)cc4)=CC[C@]3(C)C2)(c2ccccc2)CC1` [Example 93] yielded an EC50 of under 500 nM.
Compound `CC1(C)C(c2ccc(C(=O)O)cc2)=CC[C@]2(C)CN(C(=O)c3ccccc3C(N)=O)CC=C12` [Example 20] has an EC50 of over 3000 nM.
With `CC1(C)C(c2ccc(C(=O)O)cc2)=CC[C@]2(C)CN(C(=O)c3ccccc3C(=O)O)CC=C12` [Example 14] the EC50 was over 3000 nM.
In the case of `CC1(C)C(c2ccc(C(=O)O)cc2)=CC[C@]2(C)CN(CCN3CCS(=O)(=O)CC3)CC=C12` [Example 79], the EC50 is reported as over 3000 nM.
`Cc1nn(-c2ccccc2)nc1C(=O)N1CC=C2C(C)(C)C(c3ccc(C(=O)O)cc3)=CC[C@]2(C)C1` [Example A40] gave an EC50 of over 3000 nM.
Work on `CC(C)C[C@@H](NC(=O)OC(C)(C)C)C(=O)N1CCC(C(=O)N2CC=C3C(C)(C)[C@@H](c4ccc(C(=O)O)cc4)CC[C@]3(C)C2)(c2ccccc2)CC1` [Example 88] yielded an EC50 of under 500 nM.
In the case of `CC1(C)C2CCN(C(=O)c3ccccc3-c3nc4ccccc4[nH]3)C[C@@]2(C)CC[C@@H]1c1ccc(C(=O)O)cc1` (stereo partly shown) [Example 85], the EC50 is reported as under 500 nM.
`CC1(C)C(c2ccc(C(=O)O)cc2)=CC[C@]2(C)CN(C(=O)c3ccc(N4CCOCC4)cc3)CC=C12` [Example 28] gave an EC50 of over 3000 nM.
`CC1(C)C(c2ccc(C(=O)O)cc2)=CC[C@]2(C)CN(C(=O)c3cncc(C(=O)O)c3)CC=C12` [Example 45] gave an EC50 of over 3000 nM.
`CC1(C)C(c2ccc(C(=O)O)cc2)=CC[C@]2(C)CN(C(=O)c3cc(F)ccc3F)CC=C12` [Example 6] showed an EC50 of over 3000 nM.
In the case of `CC1(C)C(c2ccc(C(=O)O)cc2)=CC[C@]2(C)CN(C(=O)c3ccccc3-c3nc4cc(C(=O)O)ccc4n3Cc3cccnc3)CC=C12` [Example A293], the EC50 is reported as over 3000 nM.
`CC1(C)C(c2ccc(C(=O)O)cc2)=CC[C@]2(C)CN(C(=O)c3cccc(CN4CCS(=O)(=O)CC4)c3)CC=C12` [Example 38] showed an EC50 of over 3000 nM.
In the case of `CC1(C)C(c2ccc(C(=O)O)cc2)=CC[C@]2(C)CN(C(=O)c3cccc(F)c3)CC=C12` [Example 2], the EC50 is reported as over 3000 nM.
In the case of `CC1(C)C(c2ccc(C(=O)O)cc2)=CC[C@]2(C)CN(C(=O)c3cccc(C(N)=O)c3)CC=C12` [Example 21], the EC50 is reported as over 3000 nM.
With `CC1(C)C(c2ccc(C(=O)O)cc2)=CC[C@]2(C)CN(C(=O)c3ccccc3)CC=C12` [Example 1, (S)-4-(2-benzoyl-5,5,8a-trimethyl-1,2,3,5,8,8a-hexahydroisoquinolin-6-yl)benzoic acid] the EC50 was over 3000 nM.
For `Cc1nc2cc(C(=O)N3CC=C4C(C)(C)C(c5ccc(C(=O)O)cc5)=CC[C@]4(C)C3)ccc2[nH]1` [Example 41], the EC50 was over 3000 nM.
In the case of `CN(C)c1ccc(C(=O)N2CC=C3C(C)(C)C(c4ccc(C(=O)O)cc4)=CC[C@]3(C)C2)cc1` [Example 25], the EC50 is reported as over 3000 nM.
For `CC1(C)C(c2ccc(C(=O)O)cc2)=CC[C@]2(C)CN(C(=O)c3cccc(F)c3F)CC=C12` [Example 4], the EC50 was over 3000 nM.
For `CC1(C)C(c2ccc(C(=O)O)cc2)=CC[C@]2(C)CN(C(=O)c3cccc(C(=O)N4CC=C5C(C)(C)C(c6ccc(C(=O)O)cc6)=CC[C@]5(C)C4)n3)CC=C12` [Example 61], the EC50 was over 3000 nM.
`CC(C)S(=O)(=O)N1CCC(C(=O)N2CC=C3C(C)(C)C(c4ccc(C(=O)O)cc4)=CC[C@]3(C)C2)(c2ccccc2)CC1` [Example A195] was tested, and the EC50 was under 500 nM.
Work on `CC1(C)C(c2ccc(C(=O)O)cc2)=CC[C@]2(C)CN(C(=O)c3cc(F)cc(F)c3)CC=C12` [Example 8] yielded an EC50 of over 3000 nM.
`COc1ccc2nc(-c3ccccc3C(=O)N3CC=C4C(C)(C)C(c5ccc(C(=O)O)cc5)=CC[C@]4(C)C3)oc2c1` [Example A334] was tested, and the EC50 was under 500 nM.

Same assay, conditions: Renilla, NL43, read-out: 10% FBS EC50, 10% FBS, numeric values
In the case of `Cn1nc(-c2ccccc2)c(C(=O)N2CC=C3C(C)(C)C(c4ccc(C(=O)O)cc4)=CC[C@]3(C)C2)c1Cl` [Example A79], the EC50 is reported as 870 nM.
For `COc1ccc(S(=O)(=O)Cc2ccccc2)cc1C(=O)N1CC=C2C(C)(C)C(c3ccc(C(=O)O)cc3)=CC[C@]2(C)C1` [Example 32], the EC50 was 660 nM.
Compound `CC1(C)C(c2ccc(C(=O)O)cc2)=CC[C@]2(C)CN(c3cc(NC(=O)CCN4CCS(=O)(=O)CC4)cc(-c4nnn(CCN5CCS(=O)(=O)CC5)n4)c3)CC=C12` [Example B4, (S)-4-(2-(3-(2-(2-(1,1-dioxidothiomorpholino)ethyl)-2H-tetrazol-5-yl)-5-(3-(1,1-dioxidothiomorpholino)propanamido)phenyl)-5,5,8a-trimethyl-1,2,3,5,8,8a-hexahydroisoquinolin-6-yl)benzoic acid] has an EC50 of 1700 nM.
In the case of `CC1(C)C(c2ccc(C(=O)O)cc2)=CC[C@]2(C)CN(C(=O)c3[nH]c4ccccc4c3-c3ccccc3)CC=C12` [Example A112], the EC50 is reported as 1100 nM.
For `COc1ccc2oc(-c3ccccc3C(=O)N3CC=C4C(C)(C)C(c5ccc(C(=O)O)cc5)=CC[C@]4(C)C3)nc2c1` [Example A320], the EC50 was 183 nM.
`CC1(C)C(c2ccc(C(=O)O)cc2)=CC[C@]2(C)CN(c3cc(-c4nnn(CCN5CCS(=O)(=O)CC5)n4)cc([N+](=O)[O-])c3)CC=C12` [Example B1, (S)-4-(2-(3-(2-(2-(1,1-dioxidothiomorpholino)ethyl)-2H-tetrazol-5-yl)-5-nitrophenyl)-5,5,8a-trimethyl-1,2,3,5,8,8a-hexahydroisoquinolin-6-yl)benzoic acid] showed an EC50 of 24 nM.
For `CC(C)(C)OC(=O)N1CCC(C(=O)N2CCC3C(C)(C)[C@@H](c4ccc(C(=O)O)cc4)CC[C@]3(C)C2)(c2ccccc2)CC1` (stereo partly shown) [Example 84], the EC50 was 50 nM.
In the case of `C[C@@H](OC(C)(C)C)[C@H](NC(=O)OC(C)(C)C)C(=O)N1CCC(C(=O)N2CC=C3C(C)(C)C(c4ccc(C(=O)O)cc4)=CC[C@]3(C)C2)(c2ccccc2)CC1` [Example A185], the EC50 is reported as 123 nM.
With `CC1(C)C(c2ccc(C(=O)O)cc2)=CC[C@]2(C)CN(C3CCC(CN)(c4ccccc4)CC3)CC=C12` (stereo partly drawn) [Example C3, (S)-4-(2-(4-(aminomethyl)-4-phenylcyclohexyl)-5,5,8a-trimethyl-1,2,3,5,8,8a-hexahydroisoquinolin-6-yl)benzoic acid] the EC50 was 150 nM.
For `CC1(C)C(c2ccc(C(=O)O)cc2)=CC[C@]2(C)CN(C(=O)c3ccccc3-c3nc4cc(Br)ccc4o3)CC=C12` [Example A315], the EC50 was 127 nM.
Work on `Cc1ccc2oc(-c3ccccc3C(=O)N3CC=C4C(C)(C)C(c5ccc(C(=O)O)cc5)=CC[C@]4(C)C3)nc2c1` [Example A309] yielded an EC50 of 171 nM.
`CC(C)(C)OC(=O)N1CSC[C@@H]1C(=O)N1CCC(C(=O)N2CC=C3C(C)(C)C(c4ccc(C(=O)O)cc4)=CC[C@]3(C)C2)(c2ccccc2)CC1` [Example A204] was tested, and the EC50 was 309 nM.
`CC1(C)C(c2ccc(C(=O)O)cc2)=CC[C@]2(C)CN(C(=O)C3(Cc4ccccc4)CCNCC3)CC=C12` [Example 55] showed an EC50 of 3040 nM.
`CC1(C)C(c2ccc(C(=O)O)cc2)=CC[C@]2(C)CN(C(=O)c3ccccc3-c3nc4cc([N+](=O)[O-])ccc4[nH]3)CC=C12` [Example A273] showed an EC50 of 63 nM.
Work on `CC1(C)C(c2ccc(C(=O)O)cc2)=CC[C@]2(C)CN(C3CCC(CN(CCN4CCS(=O)(=O)CC4)CCN4CCS(=O)(=O)CC4)(c4ccccc4)CC3)CC=C12` (stereo partly drawn) [Example C4, (S)-4-(2-(4-((bis(2-(1,1-dioxidothiomorpholino)ethyl)amino)methyl)-4-phenylcyclohexyl)-5,5,8a-trimethyl-1,2,3,5,8,8a-hexahydroisoquinolin-6-yl)benzoic acid] yielded an EC50 of over 3000 nM.
`CC1(C)C(c2ccc(C(=O)O)cc2)=CC[C@]2(C)CN(C(=O)C3(c4ccccc4)CCN(C(=O)CN4CCS(=O)(=O)CC4)CC3)CC=C12` [Example 94] was tested, and the EC50 was 1370 nM.
In the case of `CC1(C)C(c2ccc(C(=O)O)cc2)=CC[C@]2(C)CN(C(=O)c3ccccc3-c3nc4ccccc4[nH]3)CC=C12` [Example A114], the EC50 is reported as 52 nM.
